Reference: patent US20250051260A1, “METHOD FOR PREPARING 4-NITRO-2-(TRIFLUOROMETHYL)ACETOPHENONE AND APPLICATION THEREOF” (MAXUNITECH INC., priority 2022, published 2025)

Legend:
Experiment in all cases: Petri dish test for herbicide bioactivity (NY/T 1155.1-2006)
Format in all cases: in vivo
Details in all cases: 7 days after treatment
[1] = system: Echinochloa crusgalli (L.) Beauv
Source text: (§1) Test standard:NY/T 1155.1-2006 Pesticides guidelines for laboratory bioactivity tests. Part 1:Petri dish test for herbicide bioactivity
(§2) Targets: Echinochloa crusgalli (L.) Beauv, Panicum acroanthum Steud., Solanum nigrum L., Chenopodium album L.
(§3) Test agent:ethyl 2-(4-nitro-2-trifluoromethylphenyl)-2-cyanopropanoate prepared in Example 1
(§4) The test agent was weighed and dissolved in DMF to obtain a mother liquor. different amounts of mother liquor were weighed and diluted into water to prepare different doses of the test agent.
(§5) Test method:Petri dish test
(§6) 1 test agent, 1 CK (clean water control), 4 targets, and 2 replicate tests per treatment were required. Test method includes the following steps:putting two filter papers on a Petri dish with a diameter of 9 cm; adding 8 mL of the prepared test agent of different concentrations; putting 10 uniform weed seeds; and then placing in an incubator (30° C./25° C., light for 12 h/for dark 12 h). After treatment, the growth state of the test target was regularly observed, the comprehensive growth inhibition rate of each agent was visually investigated with CK about 7 days after the treatment, and the number of seedlings, stem length and root length of plants were measured, and the mergence rate, stem length, and root length and inhibition rate were calculated compared with CK.

Chenopodium album L. = system: Chenopodium album L.
Source text: as §1, §2, §3, §4, §5, §6

[2] = system: Panicum acroanthum Steud.
Source text: as §1, §2, §3, §4, §5, §6

Solanum nigrum L. = system: Solanum nigrum L.
Source text: as §1, §2, §3, §4, §5, §6

For `CCOC(=O)C(C)(C#N)c1ccc([N+](=O)[O-])cc1C(F)(F)F` (stereo not drawn) [ethyl 2-(4-nitro-2-trifluoromethylphenyl)-2-cyanopropanoate], the “Emergence rate, inhibition rate” value ([1]; agent concentration 500) was 100.0%, the “Root length, inhibition rate” value ([1]; agent concentration 500) was 100.0% and the “Stem length, inhibition rate” value ([1]; agent concentration 500) was 100.0%. For the same compound, the “Emergence rate, inhibition rate” value ([1]; agent concentration 1000) was 100.0%, the “Root length, inhibition rate” value ([1]; agent concentration 1000) was 100.0% and the “Stem length, inhibition rate” value ([1]; agent concentration 1000) was 100.0%. For the same compound, the “Emergence rate, inhibition rate” value (Chenopodium album L.; agent concentration 100) was 63.6%, the “Root length, inhibition rate” value (Chenopodium album L.; agent concentration 100) was 100.0% and the “Stem length, inhibition rate” value (Chenopodium album L.; agent concentration 100) was 70.4%. For the same compound, the “Emergence rate, inhibition rate” value (Chenopodium album L.; agent concentration 500) was 100.0%, the “Root length, inhibition rate” value (Chenopodium album L.; agent concentration 500) was 100.0% and the “Stem length, inhibition rate” value (Chenopodium album L.; agent concentration 500) was 100.0%. For the same compound, the “Emergence rate, inhibition rate” value (Chenopodium album L.; agent concentration 1000) was 100.0%, the “Root length, inhibition rate” value (Chenopodium album L.; agent concentration 1000) was 100.0% and the “Stem length, inhibition rate” value (Chenopodium album L.; agent concentration 1000) was 100.0%. For the same compound, the “Emergence rate, inhibition rate” value ([2]; agent concentration 500) was 100.0%, the “Root length, inhibition rate” value ([2]; agent concentration 500) was 100.0% and the “Stem length, inhibition rate” value ([2]; agent concentration 500) was 100.0%. For the same compound, the “Emergence rate, inhibition rate” value ([2]; agent concentration 1000) was 100.0%, the “Root length, inhibition rate” value ([2]; agent concentration 1000) was 100.0% and the “Stem length, inhibition rate” value ([2]; agent concentration 1000) was 100.0%. The “Emergence rate, inhibition rate” value (Solanum nigrum L.; agent concentration 500) was 100.0%, the “Root length, inhibition rate” value (Solanum nigrum L.; agent concentration 500) was 100.0% and the “Stem length, inhibition rate” value (Solanum nigrum L.; agent concentration 500) was 100.0%. The “Emergence rate, inhibition rate” value (Solanum nigrum L.; agent concentration 1000) was 100.0%, the “Root length, inhibition rate” value (Solanum nigrum L.; agent concentration 1000) was 100.0% and the “Stem length, inhibition rate” value (Solanum nigrum L.; agent concentration 1000) was 100.0%.
